Reference: patent US20020028938A1, “Prostaglandin endoperoxide H synthase biosynthesis inhibitors” (priority 1997, published 2002)
pIC50: −log10 of the molar value. Values joined by “and” are separate entries in the source; they are usually repeats but may differ in a detail not shown here. Equal values may be shown once. Values belong to the compound of their own block, whether it stands above or below them.

Key:
[1] = biological target: T1, recombinant human Cox-1 (r-hu Cox1) (Homo sapiens, UniProt P23219); assay: Recombinant human PGHS-1 enzyme assay (RHUCX1); format: biochemical; conditions: for pIC50: read-out: RHUCX1 IC50 (parenthetical value)
T1 construct: made in house; host or cells: baculovirus/Sf9 insect cells (microsomes)
Summary of the method: (§1)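 Recombinant enzyme reaction ran 2.5 minutes at room temperature, then was quenched with HCl and neutralized with NaOH. PGE2 formed with and without drug was quantified by EIA against standards in the same milieu. Percent inhibition versus control mean; IC50 by linear regression.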

[2] = biological target: T2, recombinant human Cox-2 (r-hu Cox-2) (Homo sapiens, UniProt P35354); assay: Recombinant human PGHS-2 enzyme assay (RHUCX2); format: biochemical; conditions: for pIC50: read-out: RHUCX2 IC50 (parenthetical value)
T2 construct: made in house; host or cells: baculovirus/Sf9 insect cells (microsomes)
T2 sequence (P35354 18-604): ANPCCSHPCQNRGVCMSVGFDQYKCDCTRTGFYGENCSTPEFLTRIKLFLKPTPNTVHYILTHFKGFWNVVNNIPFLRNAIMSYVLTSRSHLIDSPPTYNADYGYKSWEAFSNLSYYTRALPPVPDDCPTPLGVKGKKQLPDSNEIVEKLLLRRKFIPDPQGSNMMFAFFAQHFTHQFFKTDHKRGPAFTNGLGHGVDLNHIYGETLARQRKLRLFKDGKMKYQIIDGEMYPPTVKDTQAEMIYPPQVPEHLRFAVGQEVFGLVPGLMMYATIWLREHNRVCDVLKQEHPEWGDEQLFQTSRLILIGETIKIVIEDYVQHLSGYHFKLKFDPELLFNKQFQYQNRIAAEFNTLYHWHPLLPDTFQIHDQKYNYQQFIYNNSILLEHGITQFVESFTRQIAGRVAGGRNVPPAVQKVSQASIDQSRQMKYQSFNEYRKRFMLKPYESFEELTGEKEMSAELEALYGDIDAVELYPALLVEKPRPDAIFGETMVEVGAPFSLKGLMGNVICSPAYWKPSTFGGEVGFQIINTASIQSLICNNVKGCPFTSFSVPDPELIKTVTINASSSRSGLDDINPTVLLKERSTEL
Summary of the method: as §1

[3] = system: air pouch prostaglandin biosynthesis (Cox-2); assay: Carrageenan induced air pouch prostaglandin biosynthesis model (CAP); format: in vivo, rat; conditions: 3 mpk, rat; for inhibition in vivo at 3 mg/kg: 4 h, read-out: CAP % Inhib. @ 3 mpk
Summary of the method: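 Male Sprague Dawley rats with dorsal air pouches (20 mL air day 0, 10 mL day 3) received 0.2% lambda carrageenan in saline into the pouch on day 7. Compounds dosed at 0.1 to 10 mg/kg 30 min before carrageenan; pouch lavaged 4 h later, prostaglandins measured by EIA. Percent inhibition versus control mean; ED50 by linear regression.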

[4] = system: carrageenan induced paw edema; assay: Carrageenan induced paw edema (CPE) in rats; format: in vivo; conditions: 10 mpk oral, rat, 3 hours after carrageenan; for inhibition in vivo at 10 mg/kg: read-out: CPE % Inhib. @ 10 mpk
Procedure: (§2) For oral administration, test compounds were suspended on the day of use in 100% polyethyleneglycol (PEG 400) with a motorized homogenizer equipped with a Teflon-coated pestle (TRI-R Instrument, Jamaica, N.Y.).
(§3) To compare the mean responses of the treatment groups, analysis of variance was applied. Percent inhibition values were determined by comparing the individual treatment mean values to the mean of the control group. Linear regression was used to estimate IC50's/ED50's in appropriate assays.
Hingpaw edema was […] in male rats as described by Winter et al., Proc. Soc. Exp. Biol. Med., 1962, 111, 544. Briefly, male Sprague-Dawley rats weighing between 170 and 190 g were administered test compounds orally 1 hour prior to the subplantar injection of 0.1 ml of 1% sodium carrageenan (lambda carrageenan, Sigma Chemical Co., St Louis, Mo.) into the right hindpaw. Right paw volumes (ml) were measured immediately following injection of carrageenan for baseline volume measurements using a Buxco plethysmograph (Buxco Electronics, Inc., Troy, N.Y.). Three hours after the injection of carrageenan, right paws were remeasured and paw edema calculated for each rat by subtracting the zero time reading from the 3 hour reading. Data are reported as mean percent inhibition +/−SEM. Statistical significance of results was analyzed by Dunnetts multiple comparison test where p<0.05 was considered statistically significant.

[5] = system: prostaglandin biosynthesis in vivo (pleural lavage eicosanoids); assay: Rat carrageenan pleural inflammation (CIP) model; conditions: 10 mpk oral; for inhibition in vivo at 10 mg/kg: 4 h, read-out: CIP % Inhib. @ 10 mpk
Procedure: as §2, §3
Pleural inflammation was induced in male adrenalectomized Sprague-Dawley rats following the method of Vinegar et al., Fed. Proc. 1976, 35, 2447-2456. Animals were orally dosed with experimental compounds, 30 minutes prior to the intrapleural injection of 2% lambda carrageenan (Sigma Chemical Co., St. Louis Mo.). Four hours later the animals were euthanized and the pleural cavities lavaged with ice cold saline. The lavage fluid was then added to two volumes of ice cold methanol (final methanol concentration 66%) to lyse cells and precipitate protein. Eicosanoids were determined by EIA as described above.

[6] = biological target: T3, Human Whole Platelet Cyclooxygenase-1 (Homo sapiens, UniProt P23219); assay: Human Whole Platelet Cyclooxygenase-1 assay (HWPX); format: cell-based; conditions: for pIC50: read-out: HWPX IC50 (parenthetical value)
T3 construct: from tissue; host or cells: human blood: isolated platelets (A4) or heparinised whole blood (A9)
Summary of the method: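 Washed platelets from healthy-donor ACD blood were pre-incubated with compound for 10 min, then stimulated with calcium ionophore A23187 (8.8 μM final) for 10 min. Reaction stopped with cold 6 mM EDTA; thromboxane in supernatants quantified with a commercial kit.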

[7] = biological target: T4, human amnionic whole cell cyclooxygenase-2 (WISH cells) (Homo sapiens, UniProt P35354); assay: IL-1β induced PGE2 production in WISH cells; format: cell-based; conditions: read-out: Wish IC50 (parenthetical value)
T4 construct: endogenous in cells; host or cells: human amnionic WISH cells, induced with IL-1beta
T4 sequence (P35354 18-604): T2 sequence (P35354 18-604)
Summary of the method: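 Confluent (80%) WISH cells were stimulated with 5 ng/ml IL-1β in serum-free Neuman-Tytell medium, with or without test compound in DMSO (0.01% v/v). PGE2 in the culture medium was measured by EIA against standards prepared in the same medium, read by optical density.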

[8] = read-out: RHUCX1 % Inh. at Dose
[9] = 100 μM, read-out: RHUCX1 % Inh. at Dose
[10] = read-out: RHUCX2 % Inh. at Dose
[11] = read-out: HWPX % Inhib. at Dose

T1 sequence (P23219 24-599): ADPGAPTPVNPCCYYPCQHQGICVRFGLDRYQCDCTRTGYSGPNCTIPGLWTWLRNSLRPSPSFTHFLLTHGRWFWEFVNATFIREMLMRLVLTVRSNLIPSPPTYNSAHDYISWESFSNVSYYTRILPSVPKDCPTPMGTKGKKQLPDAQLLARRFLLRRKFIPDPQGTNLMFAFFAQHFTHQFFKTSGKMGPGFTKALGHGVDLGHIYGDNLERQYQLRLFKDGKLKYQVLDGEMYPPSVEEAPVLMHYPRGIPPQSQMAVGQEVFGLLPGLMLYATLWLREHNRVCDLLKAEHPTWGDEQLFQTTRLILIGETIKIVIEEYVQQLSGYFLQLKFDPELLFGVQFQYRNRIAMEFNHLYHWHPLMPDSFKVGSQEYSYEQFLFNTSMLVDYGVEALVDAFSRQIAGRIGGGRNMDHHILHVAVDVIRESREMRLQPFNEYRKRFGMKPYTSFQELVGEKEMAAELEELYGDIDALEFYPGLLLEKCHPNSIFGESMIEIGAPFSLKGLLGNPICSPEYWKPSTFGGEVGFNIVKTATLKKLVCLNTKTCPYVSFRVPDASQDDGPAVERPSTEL
T3 sequence (P23219 24-599): as above

Structure (SMILES): CS(=O)(=O)c1ccc(-c2cnn(-c3ccc(F)c(F)c3)c(=O)c2-c2ccc(F)cc2)cc1 [Example 182, 2-(3,4-Difluorophenyl)-4-(4-fluorophenyl)-5-[4-(methylsulfonyl)phenyl]-3(2H)-pyridazinone]
- pIC50 [1]: 5.30
- pIC50 [2]: 7.15
- inhibition in vivo at 3 mg/kg [3]: 98%
- inhibition in vivo at 10 mg/kg [4]: 27%
- melting point: 109 to 110 °C
- inhibition in vivo at 10 mg/kg [5]: 59%

Structure (SMILES): CS(=O)(=O)c1ccc(-c2cnn(CC(F)(F)F)c(=O)c2-c2ccc(Cl)cc2)cc1 [Example 58, 2-(2,2,2-Trifluoroethyl)-4-(4-chlorophenyl)-5-[4-(methylsulfonyl)phenyl]-3(2H)-pyridazinone]
- inhibition at 100 µM [1, 9]: 0%
- pIC50 [2]: 6.02
- inhibition in vivo at 3 mg/kg [3]: 67%
- inhibition in vivo at 10 mg/kg [4]: 14%
- melting point: 55 to 57 °C
- inhibition in vivo at 10 mg/kg [5]: 42%

Structure (SMILES): NS(=O)(=O)c1ccc(-c2cnn(CC(F)(F)F)c(=O)c2-c2ccc(Cl)c(F)c2)cc1 [Example 80, 2-(2,2,2-Trifluoroethyl)-4-(4-chloro-3-fluorophenyl)-5-[4-(aminosulfonyl)phenyl]-3(2H)-pyridazinone]
- inhibition at 1 µM ([1]; 1 μM, read-out: RHUCX1 % Inh. at Dose): 37%
- inhibition at 10 µM [1, 8]: 41%
- pIC50 [2]: 7.19
- inhibition in vivo at 3 mg/kg [3]: 91%
- inhibition in vivo at 10 mg/kg [4]: 28.5%
- melting point: 214 to 215 °C
- inhibition in vivo at 10 mg/kg [5]: 60%

Structure (SMILES): NS(=O)(=O)c1ccc(-c2cnn(-c3ccc(F)c(F)c3)c(=O)c2-c2ccc(F)cc2)cc1 [Example 400]
- inhibition at 100 µM [1, 9]: 27%
- pIC50 [2]: 6.85
- pIC50 [6]: 6.52
- pIC50 [7]: 7.59
- inhibition in vivo at 3 mg/kg [3]: 82.5%
- inhibition in vivo at 10 mg/kg [4]: 41%
- melting point: 177 to 181 °C
- inhibition in vivo at 10 mg/kg [5]: 65%

Structure (SMILES): CS(=O)(=O)c1ccc(-c2cnn(-c3ccccc3F)c(=O)c2-c2ccc(F)cc2)cc1 [Example 185, 2-(2-Fluorophenyl)-4-(4-fluorophenyl)-5-[4-(methlsulfonyl)phenyl]-3(2H)-pyridazinone]
- CAP % Inhib. @ 3 mpk [3]: 53%
- CPE % Inhib. @ 10 mpk [4]: 20%
- CIP % Inhib. @ 10 mpk [5]: 59%

Structure (SMILES): Cc1ccc(-n2ncc(-c3ccc(S(C)(=O)=O)cc3)c(-c3ccc(F)cc3)c2=O)s1 [Example 168]
- inhibition at 100 µM [1, 9]: 0%
- inhibition at 0.1 µM [2, 10]: 93%
- inhibition at 1 µM [2, 10]: 85%
- inhibition at 1 µM [6, 11]: 47%
- pIC50 [7]: 8.05
- inhibition in vivo at 10 mg/kg [4]: 6%
- melting point: 219 to 224 °C
- inhibition in vivo at 10 mg/kg [5]: 0%

Structure (SMILES): CCCc1ccc(-c2c(-c3ccc(S(C)(=O)=O)cc3)cnn(CC(F)(F)F)c2=O)cc1 [Example 66, 2-(2,2,2-Trifluoroethyl)-4-(4-n-proylphenl)-5-[4-(methylsulfonyl)phenyl]-3(2H)-pyridazinone]
- CAP % Inhib. @ 3 mpk [3]: 0%
- CPE % Inhib. @ 10 mpk [4]: 7%
- CIP % Inhib. @ 10 mpk [5]: 59%

More lines, main results first:

- inhibition at 10 µM [1, 8]: 49%
- inhibition at 100 µM [1, 9]: 82%
- inhibition at 0.1 µM [2, 10]: 78%
- inhibition at 1 µM [2, 10]: 99%
- melting point: 185 to 189 °C and 188 to 191 °C
Structure (SMILES): NS(=O)(=O)c1ccc(-c2cnn(Cc3ccccc3)c(=O)c2-c2ccc(F)cc2)cc1 [Example 384, 2-Benzyl-4-(4-fluorophenyl)-5-[4-(aminosulfonyl)phenyl]-3(2H)-pyridazinone]
- inhibition in vivo at 3 mg/kg [3]: 51%
- inhibition in vivo at 10 mg/kg [4]: 15%
- inhibition in vivo at 10 mg/kg [5]: 51%

- pIC50 [1]: 6.75
- pIC50 [2]: 7.57
- pIC50 [6]: 7.12
- pIC50 [7]: 9.00
- melting point: 184 to 185 °C
Structure (SMILES): NS(=O)(=O)c1ccc(-c2cnn(CC=C(Cl)Cl)c(=O)c2-c2ccc(F)cc2)cc1 [Example 119, 2-(3,3-Dichloro-2-2-propenyl)-4-(4-fluorophenyl)-5-[4-(aminosulfonyl)phenyl)-3(2H)-pyridazinone]
- inhibition in vivo at 3 mg/kg [3]: 76%
- inhibition in vivo at 10 mg/kg [4]: 27%
- inhibition in vivo at 10 mg/kg [5]: 82%

- inhibition at 100 µM [1, 9]: 15%
- inhibition at 0.1 µM [2, 10]: 45%
- inhibition at 1 µM [2, 10]: 97%
- inhibition at 1 µM [6, 11]: 58%
- inhibition at 3 µM ([6]; 3 μM, read-out: HWPX % Inhib. at Dose): 74%
- pIC50 [7]: 7.60
- melting point: 169 to 171 °C
Structure (SMILES): CS(=O)(=O)c1ccc(-c2cnn(C3CCCCC3)c(=O)c2-c2ccc(F)cc2)cc1 [Example 120, 2-Cyclohexyl-4-(4-fluorophenyl)-5-[4-(methylsulfonyl)phenyl]-3(2H)-pyridazinone]
- inhibition in vivo at 10 mg/kg [4]: 11%
- inhibition in vivo at 10 mg/kg [5]: 5%

- pIC50 [1]: 5.73
- pIC50 [2]: 6.87
- pIC50 [6]: 5.00
- pIC50 [7]: 7.52
- melting point: 102 to 110 °C
Structure (SMILES): CS(=O)(=O)c1ccc(-c2cnn(-c3ccc(Cl)c(F)c3)c(=O)c2-c2ccc(F)cc2)cc1 [Example 190]
- inhibition in vivo at 3 mg/kg [3]: 71%
- inhibition in vivo at 10 mg/kg [4]: 28%
- inhibition in vivo at 10 mg/kg [5]: 60%

- pIC50 [6]: 5.14
- pIC50 [7]: 7.52
- melting point: 214 to 216 °C
Structure (SMILES): CS(=O)(=O)c1ccc(-c2cnn(-c3ccc(Cl)cc3)c(=O)c2-c2ccc(F)cc2)cc1 [Example 160, 2-(4-Chlorophenyl)-4-(4-fluorophenyl)-5-[4-(methylsulfonyl)phenyl]-3(2H)-pyridazinone]
- inhibition in vivo at 10 mg/kg [4]: 35%
- inhibition in vivo at 10 mg/kg [5]: 56%

- RHUCX1 % Inh. at Dose (μM) ([1]; 100 μM): 0 @ 100%
- pIC50 [2]: 8.30
- pIC50 [7]: 7.39
Structure (SMILES): CS(=O)(=O)c1ccc(-c2cnn(C3CCCC3)c(=O)c2-c2ccc(F)cc2)cc1 [Example 121, 2-Cyclopentyl-4-(4-fluorphenyl)-5-[4-(methylsulfonyl)phenyl]-3(2H)-pyridazinone]
- CPE % Inhib. @ 10 mpk [4]: 8%
- CIP % Inhib. @ 10 mpk [5]: 19%

- inhibition at 100 µM [1, 9]: 35%
- inhibition at 1 µM [2, 10]: 39%
- inhibition at 10 µM ([2]; 10 μM, read-out: RHUCX2 % Inh. at Dose): 82%
- pIC50 [6]: 5.06
- pIC50 [7]: 6.90
- melting point: 154 to 155 °C
Structure (SMILES): C[S+]([O-])c1ccc(-c2cnn(CC(F)(F)F)c(=O)c2-c2ccc(Cl)cc2)cc1 (centres unmarked) [Example 77]
- inhibition in vivo at 10 mg/kg [4]: 21%
- inhibition in vivo at 10 mg/kg [5]: 51%
